One assay deals with phospho-STAT3 (Y705). The experiment in a line: Western blot of constitutive phospho-STAT3 (Y705) in HepG2. It is filed as cell-based, human. How it is done: FIG. 2 depicts the suppression of phospho-STAT3 by compound 1 (CIMO) in a dose dependent manner [A]. HepG2 cells (5×10^5/mL) are treated with the indicated concentrations of CIMO for 6 hours, after which whole-cell extracts are prepared and resolved on SDS-PAGE gel, electrotransferred onto nitrocellulose membrane, and probed for phospho-STAT3. The same blot is stripped and reprobed with STAT3 antibody to verify equal protein loading. […] HepG2 cells (5×10^5/mL) are treated with the indicated concentrations of AG490 for about 6 hours, after which Western Blotting is done as described for [A]. [C] depicts the suppression of phospho-STAT3 levels by Compound 1 (CIMO) in a time-dependent manner. HepG2 cells (5×10^5/mL) are treated with 10 μMol/L CIMO for the indicated times, after which Western blotting is done as described for [A]. [D] depicts that compound 1 (CIMO) has no effect on phospho-STAT3 (Ser-727) and STAT3 protein expression. HepG2 cells (5×10^5/mL) are treated with 10 μMol/L CIMO for the indicated times, after which Western Blotting is done as described for [A] and membrane is probed using antibodies against phospho-STAT3 (Ser-727) and STAT3. […] HepG2 cells (1×10^5/mL) are incubated with or without 10 μMol/L CIMO for about 6 hours and then analyzed for the intracellular distribution of STAT3 by immunocytochemistry. The same slides are counterstained for nuclei with Hoechst (50 ng/mL) for about 5 minutes and analyzed under an fluorescencemicroscope. […] HepG2 cells (5×10^5/mL) are treated with 10 μMol/L CIMO, after which whole-cell extracts are prepared, resolved in SDS-PAGE, electrotransferred onto nitrocellulose membrane, and probed with phospho-Src, phospho-JAK1 and phospho-JAK2 antibodies. The same blots are stripped and reprobed with Src, JAK1 and JAK2 antibodies to verify equal protein loading. [G] depicts the suppression of STAT3 DNA binding ability by Compound 1 (CIMO) in HepG2 cells. HepG2 cells are treated with 10 μMol/L CIMO for the indicated time, nuclear extracts are prepared, and 5 μg of the nuclear extract protein is used for ELISA-based DNA-binding assay.
CIMO is tested towards the inhibition of constitutive activation of STAT3 in HepG2 cells by Western Blotting via antibodies recognising phospho-STAT3 (Y705). For detection of phospho-proteins, CIMO treated whole-cell extracts are lysed in lysis buffer [20 mM Tris (pH 7.4), 250 mM NaCl, 2 mM Ethylenediaminetetraacetic acid (pH 8.0), 0.1% Triton-X-100, 0.01 mg/ml aprotinin, 0.005 mg/ml leupeptin, 0.4 mM phenylmethanesulfonylfluoride, and 4 mM NaVO4). Lysates are then spun at 14,000 rpm for about 10 minutes to remove insoluble material and resolved on SDS gel. After electrophoresis, the proteins are electrotransferred to a nitrocellulose membrane, blocked with 5% non-fat milk, and probed with various antibodies (1:1000) overnight at about 4° C. The blot is washed, exposed to HRP-conjugated secondary antibodies for about 1 hour, and finally examined by chemiluminescence (ECL; GE Healthcare, Little Chalfont, Buckinghamshire, UK).
Background: Immunoblotting shows a protein as a band on a membrane.

A further assay relates to STAT3. In words: STAT3 DNA binding TransAM ELISA on nuclear extracts. Type of assay: cell-based, human. To be noted: HepG2 nuclear extracts, 10 μMol/L CIMO. Here is the method:
It is further investigated whether CIMO modulates STAT3 DNA binding activity in HepG2 cells, since it is known that STAT3 dimer translocates into the nucleus and binds to specific DNA nucleotide sequence to regulate gene expression. DNA binding assay is performed using a STAT3 DNA binding TransAM™ ELISA kit (Active Motif, Carlsbad, Calif., USA). Briefly, nuclear extracts (5 μg) from CIMO-treated cells are incubated in a 96-well plate coated with oligonucleotide containing the STAT3-specific DNA probe. Bound STAT3 is then detected by a specific primary antibody. An HRP-conjugated secondary antibody is subsequently applied to detect the bound primary antibody and provided the basis for colorimetric quantification. The enzymatic product is measured at 450 nm with a microplate reader (Tecan Systems, San Jose, Calif., USA). Specificity of this assay is tested by the addition of wild-type or mutated STAT3 consensus oligonucleotide in the competitive or mutated competitive control wells before the addition of the nuclear extracts.
Background: ELISA stands for enzyme-linked immunosorbent assay.

For another assay, the system named is JAK1. The experiment in a line: IL-6 induced JAK1 phosphorylation in Hep3B. Type of assay: cell-based. To be noted: 10 μMol/L CIMO, IL-6 10 ng/mL. Here is the method: FIG. 3 depicts comparative study of cell viability between STAT3-siRNA transfected and Compound 1 (CIMO) treated HepG2 cells [A]. Correspondingly, Western Blot analysis is used to assess the levels of phospho-STAT3 and STAT3 in HepG2 cells with siRNA-mediated depletion STAT3 expression and on exposure to 4 μM CIMO. Whole cell extract is prepared and resolved on SDS-PAGE gel, electrotransferred onto nitrocellulose membrane, and probed for phospho-STAT3 and the same blot is stripped and reprobed with STAT3 antibody and Beta actin to verify equal protein loading. [B] showcases the modulation of STAT3 mediated transcription, α2-M promoter activity by Compound 1 (CIMO) in HepG2 cells. [C] depicts the inhibition of IL-6-induced phosphorylation of STAT3, JAK1 and JAK2 by Compound 1 (CIMO). Hep3B cells (5×10^5/mL) are treated with 10 μMol/L CIMO for the indicated times and then stimulated with IL-6 (10 ng/mL) for about 15 minutes. Whole-cell extracts are then prepared, resolved on SDS-PAGE gel, electrotransferred onto nitrocellulose membrane and probed with phospho-STAT3, phospho-JAK1 and phospho-JAK2 antibodies. The same blot is stripped and reprobed with STAT3, JAK1 and JAK2 antibody to verify equal protein loading. [D] and [E], showcases the suppression of STAT3 regulated gene products involved in cell proliferation and survival by Compound 1 (CIMO). […]

Each structure is given as a SMILES string. Entries after “also recorded” stand apart in the source; their conditions may differ.

Consider `COc1ccc(C2CNC(c3cn(Cc4ccc(-c5ccccc5C#N)cc4)c4ccccc34)OC23CCCCC3)cc1` (stereo not drawn) [Compound 1], for which, in the assay with phospho-STAT3 (Y705) (HepG2), the “time of maximum inhibition of phospho-STAT3” value stood at 6 h. For the same molecule, in the assay with phospho-STAT3 (Y705) (HepG2, 4 μM CIMO), the “phospho-STAT3 levels versus DMSO control” value is listed as “decreased phospho-STAT3 levels” and the “protein levels of total STAT3 versus DMSO control” value is “not significantly altered”. Besides, the “concentration of maximum inhibition of phospho-STAT3” value in the assay with phospho-STAT3 (Y705) (HepG2, 6 hours) worked out at 20 µM. For the same molecule, the “concentration for comparable phospho-STAT3 effect versus AG490” value in the assay with phospho-STAT3 (Y705) (HepG2, CIMO compared to AG490) was “ten-fold lower concentration”. Moreover, the “levels of phospho-STAT3 (Y705)” value with phospho-STAT3 (Y705) (HepG2, Western blot, dose and time course, listed as CIMO) was “substantially downregulated in a dose- and time-dependent manner; also recorded: completely inhibits”. The STAT3 protein expression entry with phospho-STAT3 (Y705) (HepG2, same blots reprobed) is “remains unchanged”. For the same molecule, the “binding of STAT3 to the DNA” value in the assay with STAT3 is “suppresses the binding of STAT3 to the DNA in a time-dependent manner”. The “IL-6 induced phosphorylation of JAK1” value with JAK1 was “substantially down-regulates”.
